What all share (format): cell-based
Test [1] has as its target EP2 subtype of the human PGE2 receptor (Homo sapiens, UniProt P43116). Kind of test: cAMP antagonism test on the human EP2 receptor (HTRF cAMP detection). The note with it: hEP2 receptor, read-out: Antagonism hEP2 IC50. The gist of the method: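 Cells expressing human EP2 preincubated 20 min at RT with compound (0.8 nM–16.5 μM), then stimulated 60 min with PGE2 (3× solution 1.5 nM) in PBS-IBMX. After 20 min lysis, cAMP measured by competitive HTRF with cAMP-d2 and Eu cryptate anti-cAMP antibody (665/620 nm ratio).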
A general note: In TR-FRET formats the signal depends on donor and acceptor labels being close together.

In test [2] the target is EP4 subtype of the human PGE2 receptor (Homo sapiens, UniProt P35408). Kind of test: cAMP antagonism test on the human EP4 receptor (HTRF cAMP detection). The following applies: selectivity towards hEP4, IC50 measured by cAMP antagonism test. An outline of the steps: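 Cells expressing human EP4 preincubated 20 min at RT with compound (0.8 nM–16.5 μM), then stimulated with PGE2 (0.3 nM in 3× solution, with IBMX) 60 min at RT. After lysis, cAMP measured by HTRF competition (665/620 nm ratio); antagonism seen as rise in FRET signal.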

The next test concerns the target T1, human PGD receptor (Homo sapiens, UniProt Q13258).
T1 sequence (Q13258 1-359): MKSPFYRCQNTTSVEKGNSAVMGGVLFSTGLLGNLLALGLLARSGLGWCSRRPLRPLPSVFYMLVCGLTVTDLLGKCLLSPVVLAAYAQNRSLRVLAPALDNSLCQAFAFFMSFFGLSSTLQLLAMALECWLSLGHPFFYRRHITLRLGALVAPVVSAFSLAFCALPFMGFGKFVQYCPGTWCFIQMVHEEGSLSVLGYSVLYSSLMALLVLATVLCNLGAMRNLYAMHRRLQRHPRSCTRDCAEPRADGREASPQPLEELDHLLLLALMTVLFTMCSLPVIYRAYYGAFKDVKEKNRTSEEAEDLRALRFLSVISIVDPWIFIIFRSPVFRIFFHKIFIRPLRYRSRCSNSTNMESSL
Kind of test: cAMP antagonism test on the human prostaglandin D receptor (HTRF cAMP detection). The note with it: selectivity towards hDP, IC50 measured by cAMP antagonism test. The gist of the method:
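Cells pre-mixed with cAMP-d2 were preincubated with compound (0.8 nM–16.5 μM) for 20 min at RT, then stimulated with 3× PGD2 solution (6 nM, in PBS-IBMX) for 30 min at RT. After lysis (20 min), HTRF read at 665/620 nm; antagonism seen as rise in FRET ratio.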

The IC50 is the concentration that gives 50% inhibition.

EP2 subtype of the human PGE2 receptor, sequence (P43116 whole entry): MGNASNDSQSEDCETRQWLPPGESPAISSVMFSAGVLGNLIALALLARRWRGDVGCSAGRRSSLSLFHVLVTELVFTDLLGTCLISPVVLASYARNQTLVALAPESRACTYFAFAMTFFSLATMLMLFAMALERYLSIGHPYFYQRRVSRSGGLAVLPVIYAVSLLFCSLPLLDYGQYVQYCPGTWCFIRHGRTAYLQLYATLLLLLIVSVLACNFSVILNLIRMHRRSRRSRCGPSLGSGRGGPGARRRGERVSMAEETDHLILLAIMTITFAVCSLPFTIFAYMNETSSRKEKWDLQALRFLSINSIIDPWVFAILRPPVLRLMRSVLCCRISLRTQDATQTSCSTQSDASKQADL
EP4 subtype of the human PGE2 receptor, sequence (P35408 whole entry): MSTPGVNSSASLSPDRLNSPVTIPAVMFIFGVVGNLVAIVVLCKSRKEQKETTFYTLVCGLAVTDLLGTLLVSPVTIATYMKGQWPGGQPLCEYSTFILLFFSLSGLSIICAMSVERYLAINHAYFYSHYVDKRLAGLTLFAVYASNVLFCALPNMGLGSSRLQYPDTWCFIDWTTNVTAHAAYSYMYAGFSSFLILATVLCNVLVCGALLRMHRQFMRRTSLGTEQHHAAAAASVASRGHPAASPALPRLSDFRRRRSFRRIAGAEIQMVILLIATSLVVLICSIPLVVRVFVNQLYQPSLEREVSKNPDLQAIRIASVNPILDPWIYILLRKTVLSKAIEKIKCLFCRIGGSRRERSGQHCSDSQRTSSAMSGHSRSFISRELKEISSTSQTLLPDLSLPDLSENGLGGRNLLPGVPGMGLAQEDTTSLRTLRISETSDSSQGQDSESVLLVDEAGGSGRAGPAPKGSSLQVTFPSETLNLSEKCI

`Cc1c(C(=O)NCCN2CCOCC2)ccc2nn(CC3CCN(C(=O)c4ccc(-c5ccc(F)cc5)cc4)CC3)cc12` [Example 66, 2-({1-[(4′-fluoro-biphenyl-4-yl)-carbonyl]piperidin-4-yl}methyl)-4-methyl-N-(2-morpholino-ethyl)-2H-indazol-5-carboxamide]: the concentration for half-maximal inhibition (IC50) in test [1] was determined as 321 nM. Also, in test [2], the “Selectivity hEP2/hEP4” value is reported as “xx (xx: 10-100)”. On human PGD receptor, the “Selectivity hEP2/hDP” value is on record as “xx (xx: 10-100)”.
Consider `Cc1c(C(=O)NCC2COCCO2)ccc2nn(CC3CCN(C(=O)c4ccc(Oc5ccc(C(F)(F)F)cc5)cc4)CC3)cc12` (single isomer, unassigned) [Example 418, (R or S)—N-(1,4-dioxan-2-ylmethyl)-4-methyl-2-[(1-{4-[4-(trifluoromethyl)-phenoxy]benzoyl}piperidin-4-yl)methyl]-2H-indazol-5-carboxamide], for which the concentration for half-maximal inhibition (IC50) in test [1] came to 15.8 nM. For the same compound, the “Selectivity hEP2/hEP4” value in test [2] is on record as “xxx (xxx > 100)”. Also, at human PGD receptor, the “Selectivity hEP2/hDP” value is “xxx (xxx > 100)”.
As for `Cc1c(C(=O)NCC2COCCO2)ccc2nn(CC3CCN(C(=O)c4ccc(Cl)cc4)CC3)cc12` (single isomer, unassigned) [Example 415, (S or R)-2-{[1-(4-chlorobenzoyl)piperidin-4-yl]methyl}-N-(1,4-dioxan-2-ylmethyl)-4-methyl-2H-indazol-5-carboxamide], the 50% inhibitory concentration (IC50) in test [1] amounted to 21.3 nM. The “Selectivity hEP2/hEP4” value in test [2] is recorded as “xxx (xxx > 100)”. The “Selectivity hEP2/hDP” value at human PGD receptor is recorded as “xxx (xxx > 100)”.
Take `CCOc1c(C(=O)NCCOC)ccc2nn(CC3CN(C(=O)c4ccc(Cl)cc4)C3)cc12` [Example 276, 2-{[1-(4-chlorobenzoyl)azetidin-3-yl]methyl}-4-ethoxy-N-(2-methoxyethyl)-2H-indazol-5-carboxamide]: the IC50 in test [1] stood at 226 nM. In test [2], the “Selectivity hEP2/hEP4” value is “xx (xx: 10-100)”. The “Selectivity hEP2/hDP” value at human PGD receptor was “xx (xx: 10-100)”.
Regarding `COCCNC(=O)c1ccc2nn(CC3CCN(C(=O)c4ccc(C(C)(C)O)cc4)CC3)cc2c1C` [Example 334, 2-({1-[4-(1-hydroxy-1-methylethyl)benzoyl]piperidin-4-yl}methyl)-N-(2-methoxyethyl)-4-methyl-2H-indazol-5-carboxamide], the concentration for half-maximal inhibition (IC50) in test [1] amounted to 74.2 nM. For the same compound, in test [2], the “Selectivity hEP2/hEP4” value is listed as “xxx (xxx > 100)”. The “Selectivity hEP2/hDP” value on human PGD receptor is “xxx (xxx > 100)”.
In the case of `Cc1c(C(=O)NCC(F)(F)F)ccc2nn(CC3CCN(C(=O)c4ccc(Oc5cccc(C(F)(F)F)n5)cc4)CC3)cc12` [Example 304, 4-methyl-N-(2,2,2-trifluoroethyl)-2-{[1-(4-{[6-(trifluoromethyl)pyridin-2-yl]-oxy}benzoyl)piperidin-4-yl]methyl}-2H-indazol-5-carboxamide], the 50% inhibitory concentration (IC50) in test [1] is 99.8 nM. In test [2], the “Selectivity hEP2/hEP4” value is listed as “xxx (xxx > 100)”. Moreover, at human PGD receptor, the “Selectivity hEP2/hDP” value is listed as “xxx (xxx > 100)”.
Regarding `COCCNC(=O)c1cc2cn(CC3CN(C(=O)c4ccc(Cl)c(C(F)(F)F)c4)C3)nc2cc1C` [Example 185, 2-({1-[4-chloro-3-(trifluoromethyl)benzoyl]azetidin-3-yl}methyl)-N-(2-methoxy-ethyl)-6-methyl-2H-indazol-5-carboxamide], the half-maximal inhibitory concentration (IC50) in test [1] worked out at 24.8 nM. For the same compound, in test [2], the “Selectivity hEP2/hEP4” value is on record as “xxx (xxx > 100)”. On human PGD receptor, the “Selectivity hEP2/hDP” value is “xxx (xxx > 100)”.
On to `Cc1c(C(=O)NCCS(C)(=O)=O)ccc2nn(CC3CCN(C(=O)c4ccc(Br)cc4)CC3)cc12` [Example 395, 2-{[1-(4-bromobenzoyl)piperidin-4-yl]methyl}-N-(2-mesylethyl)-4-methyl-2H-indazol-5-carboxamide], for which the IC50 in test [1] was 30.4 nM. Further, the “Selectivity hEP2/hEP4” value in test [2] is on record as “xxx (xxx > 100)”. Besides, the “Selectivity hEP2/hDP” value at human PGD receptor is “xxx (xxx > 100)”.
Take `COCCNC(=O)c1ccc2nn(CC3CCN(C(=O)c4ccc(-c5cc(F)cc(F)c5)cc4)CC3)cc2c1C` [Example 389, 2-({1-[(3′,5′-difluorobiphenyl-4-yl)carbonyl]piperidin-4-yl}methyl)-N-(2-methoxyethyl)-4-methyl-2H-indazol-5-carboxamide]: the IC50 in test [1] stood at 4.51 nM. The “Selectivity hEP2/hEP4” value in test [2] was “xxx (xxx > 100)”. The “Selectivity hEP2/hDP” value at human PGD receptor is reported as “xxx (xxx > 100)”.
With `Cc1c(C(=O)NCC(C)OC2CCC2)ccc2nn(CC3CN(C(=O)c4ccc(Cl)cc4)C3)cc12` (racemic) [Example 154, (+/−)-2-{[1-(4-chlorobenzoyl)azetidin-3-yl]methyl}-N-[2-(cyclobutyloxy)propyl]-4-methyl-2H-indazol-5-carboxamide], the concentration for half-maximal inhibition (IC50) in test [1] amounted to 80.8 nM. Also, in test [2], the “Selectivity hEP2/hEP4” value is given as “xxx (xxx > 100)”. Further, the “Selectivity hEP2/hDP” value on human PGD receptor is recorded as “xxx (xxx > 100)”.
For `Cc1c(C(=O)NCCOC(C)(C)C)ccc2nn(CC3CCN(C(=O)c4ccc(Oc5ccc(F)cc5)cc4)CC3)cc12` [Example 112, N-(2-tert-butoxyethyl)-2-({1-[4-(4-fluoro-phenoxy)benzoyl]-piperidin-4-yl}methyl)-4-methyl-2H-indazol-5-carboxamide], the half-inhibitory concentration (IC50) in test [1] was 11.9 nM. The “Selectivity hEP2/hEP4” value in test [2] is “xxx (xxx > 100)”. The “Selectivity hEP2/hDP” value at human PGD receptor is reported as “xxx (xxx > 100)”.
Regarding `Cc1cc2nn(CC3CN(C(=O)c4ccc(OC(F)(F)F)cc4)C3)cc2cc1C(=O)NCCN1CCOCC1` [Example 279, 6-methyl-N-(2-morpholinoethyl)-2-({1-[4-(trifluoromethoxy)benzoyl]azetidin-3-yl}methyl)-2H-indazol-5-carboxamide], the IC50 in test [1] was 57.4 nM. Moreover, the “Selectivity hEP2/hEP4” value in test [2] was “xxx (xxx > 100)”. For the same compound, the “Selectivity hEP2/hDP” value on human PGD receptor is recorded as “xxx (xxx > 100)”.
Turning to `COCCNC(=O)c1ccc2nn(CC3CCN(C(=O)c4ccc(-c5ccc(C(F)(F)F)nc5)cc4)CC3)cc2c1C` [Example 374, N-(2-methoxyethyl)-4-methyl-2-[(1-{4-[6-(trifluoromethyl)pyridin-3-yl]-benzoyl}piperidin-4-yl)methyl]-2H-indazol-5-carboxamide], in test [1], the IC50 amounted to 6.58 nM. Further, in test [2], the “Selectivity hEP2/hEP4” value is given as “xxx (xxx > 100)”. Besides, the “Selectivity hEP2/hDP” value at human PGD receptor is “xxx (xxx > 100)”.
Regarding `COCCNC(=O)c1ccc2nn(CC3CCN(C(=O)c4ccc(C(F)(F)F)cc4F)CC3)cc2c1C` [Example 10, 2-({1-[2-fluoro-4-(trifluoromethyl)benzoyl]piperidin-4-yl}methyl)-N-(2-methoxy-ethyl)-4-methyl-2H-indazol-5-carboxamide], the IC50 in test [1] is 8.67 nM. The “Selectivity hEP2/hEP4” value in test [2] was “xxx (xxx > 100)”. The “Selectivity hEP2/hDP” value at human PGD receptor is listed as “xxx (xxx > 100)”.
Take `COCCNC(=O)c1ccc2nn(CC3CCN(C(=O)c4ccc(-c5ccc(F)cc5F)cc4)CC3)cc2c1C` [Example 48, 2-({1-[(2′,4′-difluoro-biphenyl-4-yl)-carbonyl]piperidin-4-yl}methyl)-N-(2-methoxyethyl)-4-methyl-2H-indazol-5-carboxamide]: the IC50 in test [1] amounted to 5.59 nM. For the same compound, in test [2], the “Selectivity hEP2/hEP4” value is “xxx (xxx > 100)”. Besides, the “Selectivity hEP2/hDP” value on human PGD receptor was “xxx (xxx > 100)”.
Take `COCCNC(=O)c1ccc2nn(CC3CCN(C(=O)c4ccc(OC(F)F)cc4)CC3)cc2c1C` [Example 365, 2-({1-[4-(difluoromethoxy)benzoyl]piperidin-4-yl}methyl)-N-(2-methoxyethyl)-4-methyl-2H-indazol-5-carboxamide]: the IC50 in test [1] came out at 5.3 nM. The “Selectivity hEP2/hEP4” value in test [2] was “xxx (xxx > 100)”. In addition, at human PGD receptor, the “Selectivity hEP2/hDP” value is given as “xxx (xxx > 100)”.
